How the values were obtained:
[1] = target: T1, Tyrosyl-DNA phosphodiesterase 1 (TDP1) (Homo sapiens, UniProt Q9NUW8); test: real-time fluorimetric assay with FAM/BHQ1 oligonucleotide; V(S) kinetics; EMSA and fluorescence anisotropy show no DNA competition; assay type: biochemical
T1 construct: TDP1 wild type (full-length, recombinant from E. coli, pLate31-TDP1)

Δ148TDP1 = target: T2, Δ148TDP1 (Homo sapiens, UniProt Q9NUW8); test: real-time fluorimetric assay with FAM/BHQ1 oligonucleotide; assay type: biochemical
T2 construct: gene TDP1; Δ148TDP1, truncated form lacking the first 148 N-terminal amino acid residues (recombinant from E. coli)
T2 sequence (Q9NUW8 149-608, stated change not applied): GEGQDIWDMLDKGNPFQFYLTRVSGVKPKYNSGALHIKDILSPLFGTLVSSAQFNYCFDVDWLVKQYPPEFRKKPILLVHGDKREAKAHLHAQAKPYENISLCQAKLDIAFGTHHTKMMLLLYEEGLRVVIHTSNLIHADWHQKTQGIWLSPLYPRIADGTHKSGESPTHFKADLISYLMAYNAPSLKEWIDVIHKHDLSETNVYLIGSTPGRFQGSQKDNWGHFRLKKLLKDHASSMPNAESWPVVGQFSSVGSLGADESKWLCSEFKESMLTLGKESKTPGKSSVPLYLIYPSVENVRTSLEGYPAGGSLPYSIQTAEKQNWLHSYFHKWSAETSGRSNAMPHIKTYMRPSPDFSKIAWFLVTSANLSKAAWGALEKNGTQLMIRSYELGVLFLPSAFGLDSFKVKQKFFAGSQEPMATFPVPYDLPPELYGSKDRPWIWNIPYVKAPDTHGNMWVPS

TDP1 (wild type) = TDP1 (wild type) (Homo sapiens, UniProt Q9NUW8 1-608); test: EMSA; no inhibitor; 0.5 uM TDP1, 0.1 uM DNA; two complexes (1:1 and 2:1); 50 mM Tris-HCl pH 8.0, 50 mM NaCl, 7 mM beta-mercaptoethanol; EMSA 10 min at 4 C, 5% PAGE in 0.3x TBE; anisotropy temperature not stated; details: protein: recombinant; label: 5'-(5,6)-FAM; single strand
Chain of TDP1 (wild type) (Q9NUW8 whole entry): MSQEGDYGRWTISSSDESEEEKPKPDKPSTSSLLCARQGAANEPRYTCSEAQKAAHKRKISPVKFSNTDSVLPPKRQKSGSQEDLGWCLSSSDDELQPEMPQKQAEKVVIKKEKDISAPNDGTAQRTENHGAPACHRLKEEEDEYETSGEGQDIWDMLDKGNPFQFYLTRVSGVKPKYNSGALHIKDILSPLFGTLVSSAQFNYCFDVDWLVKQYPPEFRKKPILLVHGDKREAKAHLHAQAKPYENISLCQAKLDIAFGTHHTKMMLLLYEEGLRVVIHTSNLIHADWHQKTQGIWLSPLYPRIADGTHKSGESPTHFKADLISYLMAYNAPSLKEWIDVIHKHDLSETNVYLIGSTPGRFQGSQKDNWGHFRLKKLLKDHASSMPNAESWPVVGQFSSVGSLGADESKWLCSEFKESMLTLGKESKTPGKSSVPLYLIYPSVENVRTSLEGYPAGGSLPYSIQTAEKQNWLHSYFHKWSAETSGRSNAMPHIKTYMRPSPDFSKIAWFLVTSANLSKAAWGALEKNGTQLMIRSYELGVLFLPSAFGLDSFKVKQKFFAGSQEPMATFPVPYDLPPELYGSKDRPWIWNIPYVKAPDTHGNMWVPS

T1 sequence (Q9NUW8 whole entry): as above

Row | Molecule | IC50 [1] [nM] | IC50 (Δ148TDP1) [nM] | binding result (TDP1 (wild type))
1 | CC(=O)c1c(O)c(C)c(O)c2c1OC1=CC(=O)C(=C(C)NCCCc3cc(C(C)(C)C)c(O)c(C(C)(C)C)c3)C(=O)C12C (stereo not drawn) [OL9-116] | 1400 ± 400 | 3800 ± 800 | –
2 | AACGTCAGGGTCTTCC (ssDNA) [5'-FAM 16-mer oligonucleotide] | – | – | binds

Source: publication PMC13114712, “The Influence of TDP1 Inhibitor Usnic Acid Derivative OL9-116 on the Effects of Topotecan in Human Cells” (Current Issues in Molecular Biology, 2026)
